Test results reported in patent US20250304578A1, “NITROGEN-CONTAINING FUSED HETEROCYCLIC COMPOUNDS OF N-SULFONAMIDE AND USE THEREOF” (NUTSHELL THERAPEUTICS (SHANGHAI) CO., LTD., priority 2023, published 2025).
Like-named read-outs stand apart in the source and are kept apart here.

Assays:
[1] = Metabolic stability test in hepatocytes; format: in vitro ADME; details: for hepatocyte CLint at 1 μM: read-out: In vitro Clint (μL/min/10^6 cells); for half-life at 1 μM: read-out: In vitro t1/2
Protocol: The test compound and the control drug verapamil powder were prepared into a high concentration stock solution using DMSO, and diluted to a 100 μM working solution with 50% acetonitrile/water before use, with final concentrations of 1 μM for the test compound and verapamil.
• 1) 49.5 mL of Williams' Medium E and 0.5 mL GlutaMAX were mixed as the incubation solution. The hepatocyte recovery solution and the incubation solution were pre-warmed in a 37° C. water bath for at least 15 minutes prior to use. • 2) A tube of cryopreserved hepatocytes was taken, ensuring that the hepatocytes were still in a cryogenic frozen state prior to resuscitation. The hepatocytes were quickly placed in a 37° C. water bath and gently shaken until all ice crystals were completely dispersed, sprayed with 70% ethanol and transferred to a biosafety cabinet. • 3) The contents of the hepatocyte tube were poured into a centrifuge tube containing 50 mL of recovery medium, which were centrifuged at 100 g for 10 minutes. After centrifugation, the recovery medium was aspirated, and sufficient incubation medium was added to obtain a cell suspension having a cell density of approximately 1.5×10^6 cells/mL. • 4) Cellometer Vision was used to count hepatocytes and determine the density of viable cells. The survival rate of hepatocytes must be greater than 75%. The hepatocyte suspension was diluted with incubation medium to a viable cell density of 0.5×10^6 cells/mL. • 5) A portion of hepatocyte suspension with a density of 0.5×10^6 cells/mL was boiled in water for 5 minutes to inactivate as a negative control. After cells were inactivated, substrate conversion mediated by non-cellular enzymes could be easily investigated.
• 1) 198 μL of the suspension of live or inactivated cells was transferred to a 96-well deep-well plate, which was then placed on a vortexer and preheated in an incubator for 10 minutes. Live cells were incubated in duplicate, while inactivated cells were incubated in single. • 2) 2 μL of 100 μM test compound or verapamil was added to each well for the reaction initiation, and the deep-well plate was placed back on the incubator vortexer. • 3) 25 μL of the suspension were taken from the incubated samples at 0, 15, 30, 60, 90, and 120 minutes, respectively, and added to 150 μL of acetonitrile containing internal standards (200 nM alprazolam, 200 nM labetalol, 2 μM ketoprofen, and 200 nM caffeine) to terminate the reaction. The mixture was vortexed for 10 minutes and centrifuged at 3220 g and 4° C. for 30 minutes. After centrifugation was completed, 100 μL of the supernatant and 100 μL of ultra-pure water were mixed well for UPLC-MS/MS analysis detection.
All data calculations were performed using Microsoft Excel software. Peak areas were detected by extracting the ion chromatogram. The in vitro half-life (t1/2) of the parent drug was detected by linear fitting of the natural logarithm of the percentage of parent drug […] with time.
The in vitro half-life (t1/2) was calculated by the slope: […]
In vitro intrinsic clearance (unit μL/min/10^6 cells) was calculated using the following formula:
[formula] • V=incubation volume per well (0.2 mL); • N=number of cells per well (0.1×10^6 cells)

[2] = Metabolic stability in liver microsomes; format: in vitro ADME; details: for microsomal CLint at 1 μM: read-out: In vitro Clint (μL/min/mg protein); for half-life at 1 μM: read-out: In vitro t1/2
Protocol: The test compound and the positive control compound (dextromethorphan as a control compound) were dissolved respectively in DMSO to prepare a stock solution with a concentration of 10 mM, and the above stock solution was diluted into 200 μM working solution with DMSO. 8.709 g of potassium hydrogen phosphate (K2HPO4) was dissolved in 950 mL of water, and the pH value of the solution was adjusted to 7.4 with hydrochloric acid, and then the volume was adjusted to 1000 mL with water. After filtration using a 0.22 μm filter membrane, the mixture was stored in a 4° C. refrigerator for later use. After liver microsomes of various species (protein concentration of 20 mg/mL) were thawed in a 37° C. water bath, the liver microsomes were diluted with a phosphate buffer respectively to obtain a liver microsome working solution with protein concentration of 0.629 mg/mL. 5 mM NADPH solution was prepared using the above phosphate buffer for later use. 1 mg/mL stock solution of terfenadine/tolbutamide was prepared with DMSO and then diluted with a 50% methanol/50% acetonitrile mixed solution to a reaction stop solution containing 5/10 ng/mL (terfenadine/tolbutamide) internal standard.
238.5 μL of liver microsome working solutions of various species were added to a 1.1 mL microtube, and 1.5 μL of the test compound working solution or the positive control compound (dextromethorphan) working solution (200 μM) was added respectively, mixed well, and pre-incubated in a 37° C. water bath for 5 minutes. 60 μL of NADPH solution was added to start the reaction, and after mixing well, at the time points of 0, 5, 15, 30, and 60 minutes after the reaction, 30 μL of the reaction mixture was respectively pipetted and added to 300 μL of the reaction stop solution. Samples from all time points were vortexed vigorously for 1 minute and centrifuged at 4000 rpm for 15 minutes at 4° C. 100 μL of the supernatant was added to 100 μL of pure water and mixed well for LC-MS/MS analysis.
The slope (ke) was determined by plotting the natural logarithm of the percentage of compound remaining against time, and the Tin and intrinsic clearance (CLint) were calculated based on the first-order kinetic formula: […]
The compound remaining rate is calculated as follows:
Intrinsic clearance CLint (μL/min/mg protein)=0.693*1000/T1/2/protein concentration (0.5 mg protein/mL)

[3] = system: NUGC-3 cells; experiment: Anti-proliferation effect on NUGC-3 cells (Cell Counting Kit-8); format: cell-based; details: Homo sapiens, NUGC-3, 120 h; 5 days of treatment
Protocol: Cell line NUGC-3 (JCRB, JCRB0822) was cultured in RPMI 1640 (Invitrogen, 11875-085) medium supplemented with 10% (v/v) fetal bovine serum (BI, 04-002-1A), according to the standard instructions of the American Type Culture Collection. The cell line was authenticated by short tandem repeat profiling.
In the proliferation assay, 1000 NUGC-3 cells were seeded in a 96-well flat clear bottom, TC-treated plate (Corning, 3903) in 200 μL of medium per well, and allowed to recover overnight in culture medium. Compounds were added with increasing concentration, with DMSO treatment serving as a […] control. After 5 days of treatment, the plate was equilibrated to room temperature for 30 minutes, and the number of living cells was measured by the addition of the Cell Counting Kit-8 reagent (MCE, HY-K0301). Absorbance was measured on an Enspire (Perkin elme). The relative viability of each group was presented as the percentage change relative to the […] control group and then fit to a four-parameter logit non-linear curve using the program XLFit (IDBS)

[4] = system: CYP3A4/5; experiment: Multi-concentration inhibitory activity curve of CYP3A4/5 enzymes; format: in vitro ADME; details: pH 7.4, probe testosterone; human liver microsomes; substrate testosterone; read-out: CYP3A4/5 IC50 (μM) (Testosterone)
Protocol: The buffer was filtered through a 0.45 μm filter.
Liver microsome working solution (final system concentration of 0.5 mg/mL) was prepared. […] The above stock solution was diluted with acetonitrile (4-fold dilution, 6 non-zero concentrations).
The half-maximal inhibitory concentration (IC50) was calculated using Graph Pad Prism.

[5] = cryopreserved hepatocytes in suspension, Human hepatocytes
[6] = cryopreserved hepatocytes in suspension, Mouse hepatocytes
[7] = cryopreserved hepatocytes in suspension, Rat hepatocytes
[8] = ICR/CD-1, pH 7.4, Mouse liver microsomes
[9] = Sprague Dawley, pH 7.4, Rat liver microsomes
[10] = cryopreserved hepatocytes, Human hepatocytes
[11] = cryopreserved hepatocytes, Mouse hepatocytes
[12] = cryopreserved hepatocytes, Rat hepatocytes

CNC(=O)c1ccc(NCC#Cc2cc3c(N[C@@H]4CCN(C)C[C@@H]4F)cccn3c2CC(F)(F)F)c(OC)c1 [Cpd-C, 4-((3-(8-(((3S,4R)-3-Fluoro-1-methylpiperidin-4-yl)amino)-3-(2,2,2-trifluoroethyl)indolizin-2-yl)prop-2-yn-1-yl)amino)-3-methoxy-N-methylbenzamide, reference compound]
hepatocyte CLint at 1 μM [1, 5]: 18.4 µL/min/1e6 cells | half-life at 1 μM [1, 5]: 75 min | hepatocyte CLint at 1 μM [1, 6]: 31.8 µL/min/1e6 cells | half-life at 1 μM [1, 6]: 44 min | hepatocyte CLint at 1 μM [1, 7]: 15.7 µL/min/1e6 cells | half-life at 1 μM [1, 7]: 88 min | microsomal CLint at 1 μM [2, 8]: 83.9 µL/min/mg | half-life at 1 μM [2, 8]: 17 min | microsomal CLint at 1 μM [2, 9]: 61.5 µL/min/mg | half-life at 1 μM [2, 9]: 23 min | microsomal CLint at 1 μM ([2]; pH 7.4, Human liver microsomes): 28.3 µL/min/mg | half-life at 1 μM ([2]; pH 7.4, Human liver microsomes): 49 min

[2H]C([2H])([2H])Oc1nc(C(=O)NS(C)(=O)=O)ccc1NCC#Cc1cc2c(N[C@H]3CCN(C)C[C@H]3F)cccn2c1CC(F)(F)F [Cpd-8, 5-((3-(8-(((3R,4S)-3-Fluoro-1-methylpiperidin-4-yl)amino)-3-(2,2,2-trifluoroethyl)indolizin-2-yl)prop-2-yn-1-yl)amino)-6-(methoxy-d3)-N-(methylsulfonyl)picolinamide]
IC50 [3]: 0.34 µM

COc1nc(C(=O)NS(=O)(=O)C2CC2)ccc1NCC#Cc1cc2c(N[C@@H]3CCN(C)C[C@@H]3F)cccn2c1CC(F)(F)F [Cpd-7, N-(Cyclopropylsulfonyl)-5-((3-(8-(((3S,4R)-3-fluoro-1-methylpiperidin-4-yl)amino)-3-(2,2,2-trifluoroethyl)indolizin-2-yl)prop-2-yn-1-yl)amino)-6-methoxypicolinamide]
IC50 [3]: 0.07 µM

[2H]C([2H])([2H])Oc1nc(C(=O)NS(=O)(=O)CC2CC2)ccc1NCC#Cc1cc2c(N[C@@H]3CCN(C)C[C@@H]3F)cccn2c1CC(F)(F)F [Cpd-5, N-((Cyclopropylmethyl)sulfonyl)-5-((3-(8-(((3S,4R)-3-fluoro-1-methylpiperidin-4-yl)amino)-3-(2,2,2-trifluoroethyl)indolizin-2-yl)prop-2-yn-1-yl)amino)-6-(methoxy-d3)picolinamide]
IC50 [3]: 0.081 µM

COc1cc(S(C)(=O)=O)ccc1NCC#Cc1nc2c(N[C@@H]3CCN(C)C[C@@H]3F)cccn2c1CC(F)(F)F [Cpd-B, reference compound]
hepatocyte CLint at 1 μM [1, 10]: 16.8 µL/min/1e6 cells | half-life at 1 μM [1, 10]: 82 min | hepatocyte CLint at 1 μM [1, 11]: 198 µL/min/1e6 cells | half-life at 1 μM [1, 11]: 7 min | hepatocyte CLint at 1 μM [1, 12]: 63.8 µL/min/1e6 cells | half-life at 1 μM [1, 12]: 22 min | IC50 at 10 min [4]: 3.2 µM

[2H]C([2H])([2H])Oc1nc(C(=O)NS(=O)(=O)CC(F)(F)F)ccc1NCC#Cc1cc2c(N[C@@H]3CCN(C)C[C@@H]3F)cccn2c1CC(F)(F)F [Cpd-6, 5-((3-(8-(((3S,4R)-3-Fluoro-1-methylpiperidin-4-yl)amino)-3-(2,2,2-trifluoroethyl)indolizin-2-yl)prop-2-yn-1-yl)amino)-6-(methoxy-d3)-N-((2,2,2-trifluoroethyl)sulfonyl)picolinamide]
IC50 [3]: 0.19 µM

[2H]C([2H])([2H])Oc1nc(C(=O)NS(C)(=O)=O)ccc1NCC#Cc1cc2c(N[C@H]3CCN(C)C[C@@H]3F)cccn2c1CC(F)(F)F [Cpd-9, 5-((3-(8-(((3S,4S)-3-Fluoro-1-methylpiperidin-4-yl)amino)-3-(2,2,2-trifluoroethyl)indolizin-2-yl)prop-2-yn-1-yl)amino)-6-(methoxy-d3)-N-(methylsulfonyl)picolinamide]
IC50 [3]: 0.55 µM

[2H]C([2H])([2H])Oc1nc(C(=O)NS(C)(=O)=O)ccc1NCC#Cc1cc2c(N[C@@H]3CCN(C)C[C@H]3F)cccn2c1CC(F)(F)F [Cpd-10, 5-((3-(8-(((3R,4R)-3-Fluoro-1-methylpiperidin-4-yl)amino)-3-(2,2,2-trifluoroethyl)indolizin-2-yl)prop-2-yn-1-yl)amino)-6-(methoxy-d3)-N-(methylsulfonyl)picolinamide]
IC50 [3]: 0.9 µM

[2H]C([2H])([2H])Oc1nc(C(=O)NS(=O)(=O)C2CC2)ccc1NCC#Cc1cc2c(N[C@@H]3CCN(C)C[C@@H]3F)cccn2c1CC(F)(F)F [Cpd-4, N-(Cyclopropylsulfonyl)-5-((3-(8-(((3S,4R)-3-fluoro-1-methylpiperidin-4-yl)amino)-3-(2,2,2-trifluoroethyl)indolizin-2-yl)prop-2-yn-1-yl)amino)-6-(methoxy-d3)picolinamide]
IC50 [3]: 0.097 µM
